This is an account of results in paper PMC12687424, “Penetrant PKCβ mutation in ATLL displays a mixed gain-of-function” (Biochemical Journal, 2025).

Assay [1] relates to D427N PKCβII catalytic domain. The experiment in a line: ADP-Glo in vitro kinase assay with ATP-competitive inhibitors, D427N compared with WT. The format is biochemical. Particulars: 50 μM ATP, 200 μM PSS peptide; IC50 of D427N higher than WT. The procedure:
Given the proximity of the mutation to the nucleotide pocket of the kinase, we compared the potency of three ATP-competitive inhibitors in WT and D427N PKCβII to assess if existing PKC inhibitors could be used to target the mutant. We assayed WT and D427N PKCβII catalytic domains at 50 μM ATP with one indolocarbazole inhibitor (UCN-01) and two bisindolylmaleimide inhibitors (BIM-1 and the PKCβ-specific inhibitor ruboxistaurin) (Figure 5A–C). […] These differences were 17-fold for ruboxistaurin, 9-fold for BIM-1 and 25-fold for UCN-01.
Figure 5 Pharmacology of D427N PKCβII. A–C – Representative dose-response curves when WT and D427N PKCβII catalytic domains were assayed with the indicated inhibitors, 50 μM ATP and 200 μM PSS peptide. ADP produced in the assays was measured by luminescence and converted to specific activity using an ADP standard curve. Error bars indicate the mean ± SD from three technical replicates. D – IC50 values obtained from fitting curves in (A-C). Error bars indicate the mean ± SD from three independent dose-response assays (*=P<0.05, **=P<0.01 versus WT by t-test with Holm–Šídák correction for multiple comparisons). E,F – Orthogonal views of Ruboxistaurin (pink) in the PKCβII nucleotide-binding pocket (cyan). A σA-weighted |2Fo-Fc| map is shown contoured at 1.5 σ. The location of the N427 side chain is indicated. Figure was generated using UCSF ChimeraX.
Kinase assays were carried out in white, 384-well OptiPlates (PerkinElmer) using an ADP-Glo kit (Promega) on a scale of […] for the kinase reaction. Kinase was diluted in assay buffer (40 mM Tris-HCl pH 7.5, 20 mM MgCl2, 0.1 mg/ml BSA (NEB, #B9000S), 1 mM DTT) and added to the plate (typically 0.5–1 ng/well). The assay was started by adding the substrates at a final concentration of 50–300 μM [ATP and either histone type III-S (Sigma, #H5505), MBP (Sigma, #M1891), or a peptide]. […] Luminescence was recorded using an EnSight MultiMode Plate Reader (PerkinElmer), and the slope of a standard curve was used to convert luminescence values to specific activity in nmol ADP/min/mg.
In general terms: ADP-Glo first removes unused ATP, then detects ADP through luciferase.

The target in assay [2] is D427N PKCβII catalytic domain. The assay is described as follows: Fluorescence polarisation binding of fluorescein-PSS peptide, D427N. Particulars: catalytic domains. How it is done:
Figure 3 D427N PKCβII has an altered substrate repertoire in vitro . A–D – Representative titration curves from assays of WT or D427N PKCβII catalytic domains with excess ATP and titrations of either histone type III-S, MBP, PSS peptide or BTK S180 peptide. Specific activity in nmol/min/mg was calculated using an ADP standard curve. Error bars indicate the mean ± SD from three technical replicates. E and F – Km and Vmax values of WT and D427N PKCβII catalytic domains for each substrate, obtained from Michaelis–Menten fits of titration curves in (A-D). Error bars indicate the mean ± SD from three independent assays (*=P<0.05, **=P<0.01 versus WT by t-test with Holm–Šídák correction for multiple comparisons). G – Representative binding curves of anisotropy vs protein concentration when WT or D427N PKCβII catalytic domains were titrated into fluorescein–PSS peptide; KD values are shown ± the error of the fit. […] H – Differential heat map of WT and D427N PKCβII activity towards a PamChip microarray, calculated from log2 fold change values relative to a no ATP control array. […] The measured ligand is the PSS peptide, and WT and D427N are protein variants.
Fluorescence polarisation (FP) experiments were performed using an FP-8500 spectrofluorometer (Jasco). […] Equilibrium dissociation constants were determined by plotting anisotropy as a function of PKCβII catalytic domain concentration. […]
(In fluorescence polarisation assays a small probe gives low polarisation when free and higher when bound to something large.)

Each structure is given as a SMILES string.

For `CN(C)C[C@@H]1CCn2cc(c3ccccc32)C2=C(C(=O)NC2=O)c2cn(c3ccccc23)CCO1` [ruboxistaurin], the “difference in IC50, D427N PKCβII catalytic domain versus WT” value in assay [1] was determined as 17 fold.
Take `CC(C)C[C@H](NC(=O)[C@H](CO)NC(=O)CNC(=O)[C@H](CCCCN)NC(=O)[C@H](CCCNC(=N)N)NC(=O)[C@H](C)NC(=O)[C@H](Cc1ccccc1)NC(=O)[C@H](CCCNC(=N)N)NC(=O)[C@@H](NC(=O)[C@@H](NC(=O)[C@H](CO)NC(=O)[C@H](CCC(=O)O)NC(=O)c1ccc2c(c1)C(=O)OC21c2ccc(O)cc2Oc2cc(O)ccc21)[C@@H](C)O)C(C)C)C(=O)N[C@@H](CCCNC(=N)N)C(=O)N[C@@H](CCC(N)=O)C(=O)N[C@@H](CCCCN)C(=O)N[C@@H](CC(N)=O)C(=O)N[C@H](C(=O)N[C@@H](Cc1c[nH]cn1)C(N)=O)C(C)C`: the “binding affinity of D427N PKCβII relative to WT (from KD values)” value in assay [2] is on record as “two-fold weaker affinity than WT”.
Turning to `CNC1CC2OC(C)(C1OC)n1c3ccccc3c3c4c(c5c6ccccc6n2c5c31)C(=O)NC4O` (stereo not shown) [UCN-01], the “difference in IC50, D427N PKCβII catalytic domain versus WT” value in assay [1] came to 25 fold.
Still for that read-out and setting: in the case of `CN(C)CCCn1cc(C2=C(c3c[nH]c4ccccc34)C(=O)NC2=O)c2ccccc21` [BIM-1] it was 9 fold.
